65 compounds from patent US10150728B2, “Alkylene derivatives” (Shionogi & Co., Ltd., priority 2013, dated 2018) can be followed below.

Chain of recombinant human ACC2 (O00763 27-2458): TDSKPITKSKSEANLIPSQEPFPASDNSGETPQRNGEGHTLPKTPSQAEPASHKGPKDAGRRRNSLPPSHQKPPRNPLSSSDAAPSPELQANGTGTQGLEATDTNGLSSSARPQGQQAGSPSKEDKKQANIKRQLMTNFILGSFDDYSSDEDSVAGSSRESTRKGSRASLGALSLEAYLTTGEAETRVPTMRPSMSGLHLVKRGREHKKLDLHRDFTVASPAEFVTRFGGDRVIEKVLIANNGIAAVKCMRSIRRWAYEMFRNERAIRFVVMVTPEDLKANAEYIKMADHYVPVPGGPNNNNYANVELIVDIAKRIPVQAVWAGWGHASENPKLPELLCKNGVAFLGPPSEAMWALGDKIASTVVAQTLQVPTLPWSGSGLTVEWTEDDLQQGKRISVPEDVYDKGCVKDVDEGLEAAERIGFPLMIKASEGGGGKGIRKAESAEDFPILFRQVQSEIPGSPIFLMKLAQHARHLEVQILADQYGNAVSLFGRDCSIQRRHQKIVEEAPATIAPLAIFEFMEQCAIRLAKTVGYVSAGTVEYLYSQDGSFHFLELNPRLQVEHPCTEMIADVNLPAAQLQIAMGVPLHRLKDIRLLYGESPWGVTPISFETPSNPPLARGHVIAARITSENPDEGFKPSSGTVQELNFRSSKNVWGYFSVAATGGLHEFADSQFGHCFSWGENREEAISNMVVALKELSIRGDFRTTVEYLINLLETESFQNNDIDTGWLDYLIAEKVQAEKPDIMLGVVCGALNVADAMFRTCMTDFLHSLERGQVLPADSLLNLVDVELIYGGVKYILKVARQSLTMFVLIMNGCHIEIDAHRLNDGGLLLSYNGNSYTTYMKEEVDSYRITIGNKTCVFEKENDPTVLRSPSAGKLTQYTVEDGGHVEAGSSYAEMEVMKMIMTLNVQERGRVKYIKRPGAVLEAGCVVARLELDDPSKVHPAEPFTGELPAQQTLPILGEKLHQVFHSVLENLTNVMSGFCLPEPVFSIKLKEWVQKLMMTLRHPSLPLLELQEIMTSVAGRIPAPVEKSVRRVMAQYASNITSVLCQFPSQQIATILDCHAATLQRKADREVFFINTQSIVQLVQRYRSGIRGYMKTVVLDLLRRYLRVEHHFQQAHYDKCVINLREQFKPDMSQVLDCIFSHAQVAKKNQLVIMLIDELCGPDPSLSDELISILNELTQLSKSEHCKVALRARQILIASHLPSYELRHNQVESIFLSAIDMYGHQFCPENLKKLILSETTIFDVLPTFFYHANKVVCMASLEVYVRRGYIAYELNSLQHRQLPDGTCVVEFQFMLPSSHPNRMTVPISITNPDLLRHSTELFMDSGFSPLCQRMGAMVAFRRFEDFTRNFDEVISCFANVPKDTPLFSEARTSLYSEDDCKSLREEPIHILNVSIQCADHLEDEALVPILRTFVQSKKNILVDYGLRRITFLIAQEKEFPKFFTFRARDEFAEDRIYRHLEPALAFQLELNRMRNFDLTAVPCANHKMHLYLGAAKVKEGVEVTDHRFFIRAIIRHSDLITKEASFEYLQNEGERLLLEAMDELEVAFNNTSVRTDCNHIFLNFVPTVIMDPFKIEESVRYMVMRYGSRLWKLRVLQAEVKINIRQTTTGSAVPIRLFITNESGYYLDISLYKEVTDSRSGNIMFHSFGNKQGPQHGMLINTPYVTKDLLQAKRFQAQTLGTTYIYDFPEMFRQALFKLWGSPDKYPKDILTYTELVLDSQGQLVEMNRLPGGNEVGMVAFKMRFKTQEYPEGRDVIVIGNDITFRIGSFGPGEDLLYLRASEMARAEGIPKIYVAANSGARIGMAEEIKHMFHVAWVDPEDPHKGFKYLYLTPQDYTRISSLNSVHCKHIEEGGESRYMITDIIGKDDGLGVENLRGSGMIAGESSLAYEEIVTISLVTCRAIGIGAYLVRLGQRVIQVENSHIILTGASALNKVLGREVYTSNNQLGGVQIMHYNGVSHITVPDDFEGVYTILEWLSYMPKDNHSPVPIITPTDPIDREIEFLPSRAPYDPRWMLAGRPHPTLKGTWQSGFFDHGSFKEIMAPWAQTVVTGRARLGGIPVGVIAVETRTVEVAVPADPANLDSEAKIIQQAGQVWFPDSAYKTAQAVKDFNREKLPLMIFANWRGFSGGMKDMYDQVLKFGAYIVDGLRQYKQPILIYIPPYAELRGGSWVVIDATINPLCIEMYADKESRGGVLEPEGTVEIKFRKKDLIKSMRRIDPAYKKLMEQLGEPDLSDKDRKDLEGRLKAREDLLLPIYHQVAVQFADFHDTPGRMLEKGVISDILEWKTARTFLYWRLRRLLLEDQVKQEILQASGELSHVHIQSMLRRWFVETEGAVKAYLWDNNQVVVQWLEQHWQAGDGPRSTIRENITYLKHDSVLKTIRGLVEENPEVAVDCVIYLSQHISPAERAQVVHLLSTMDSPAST

The assay addresses recombinant human ACC2 (Homo sapiens (Human), UniProt O00763). The experiment in a line: Measurement of inhibitory activity on human ACC2 (MALDI-TOF MS, acetyl CoA to malonyl CoA conversion). Type of assay: biochemical. Particulars: Tables 155-159. In outline: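 His-tagged human ACC2 (residues 27–2458) from baculovirus-infected Sf-9 cells was preincubated 1 h in pH 7.4 HEPES-KOH buffer with MgCl2, 6-10 mM potassium citrate, glutathione and BSA. Substrate solution held 1 mM ATP, 0.8 mM acetyl CoA and 25-50 mM bicarbonate. After 1–3 h at room temperature, malonyl CoA/(malonyl+acetyl CoA) was read by negative-mode MALDI-TOF MS; citrate, bicarbonate and time varied by enzyme lot.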
Broadly, the IC50 is the concentration at which inhibition is half-maximal. As for `CC(=O)N[C@@H](C)CO[C@H]1C[C@H](COc2nccc(OCC(F)F)c2Cl)C1` [Compound I-315], the IC50 amounted to 503 nM.
The value for `CC(=O)N[C@@H](C)CO[C@H]1C[C@H](COc2nccc(OCC3CC3(F)F)c2Cl)C1` (some centres unmarked) [Compound I-316] was 74 nM.
The value for `CC(=O)N[C@@H](C)CO[C@H]1C[C@H](COc2nccc(C3=CCCCC3)c2Cl)C1` [Compound I-317] was 14 nM; that for `CC(=O)N[C@@H](C)CO[C@H]1C[C@H](COc2nccc3ccccc23)C1` [Compound I-318] was 49 nM.
As to `CC(=O)N[C@@H](C)CO[C@H]1C[C@H](COc2nccc(-c3ccc(F)cc3)c2C#N)C1` [Compound I-319], the IC50 was found to be 281 nM.
The value for `CC(=O)N[C@@H](C)CO[C@H]1C[C@H](COc2nccc(-c3ccc(C(F)(F)F)cc3)c2Cl)C1` [Compound I-320] was 67 nM; that for `COc1cnc(-c2ccnc(OC[C@H]3C[C@H](OC[C@H](C)NC(C)=O)C3)c2Cl)nc1` [Compound I-321] was 167 nM; that for `CC(=O)N[C@@H](C)CO[C@H]1C[C@H](COc2nccc(-c3ncc(C(F)(F)F)cn3)c2Cl)C1` [Compound I-322] was 63 nM.
On to `CC(=O)N[C@@H](C)CO[C@H]1C[C@H](COc2nccc(N3CC(F)(F)C3)c2Cl)C1` [Compound I-323], for which the IC50 worked out at 345 nM.
Take `CC(=O)N[C@@H](C)CO[C@H]1C[C@H](COc2nccc(N3CCCCC3)c2Cl)C1` [Compound I-324]: the IC50 came to 51 nM.
The value for `CC(=O)N[C@@H](C)CO[C@H]1C[C@H](COc2nccc(N3CCCC3)c2Cl)C1` [Compound I-325] was 37 nM.
The value for `CC(=O)N[C@@H](C)CO[C@H]1C[C@H](COc2nccc(OCC(F)(F)F)c2Cl)C1` [Compound I-326] was 280 nM; that for `CC(=O)N[C@@H](C)CO[C@H]1C[C@H](COc2nccc(-n3cc(C(F)(F)F)cn3)c2Cl)C1` [Compound I-327] was 80 nM; that for `CC(=O)N[C@@H](C)CO[C@H]1C[C@H](COc2nccc3c2CCN3Cc2ccccc2)C1` [Compound I-328] was 18 nM.
The value for `CC(=O)N[C@@H](C)CO[C@H]1C[C@H](COc2nccc3c2ccn3Cc2ccccc2)C1` [Compound I-329] was 14 nM; that for `CC(=O)N[C@@H](C)CO[C@H]1C[C@H](COc2nccc(N3CCC(F)CC3)c2Cl)C1` [Compound I-330] was 105 nM; that for `CC(=O)N[C@@H](C)CO[C@H]1C[C@H](COc2nccc3c2OCC2CCCN32)C1` (some centres unmarked) [Compound I-331] was 470 nM.
For the compound `CC(=O)N[C@@H](C)CO[C@H]1C[C@H](COc2nccc(N3C4CCC3CC4)c2Cl)C1` [Compound I-332], the IC50 was 56 nM.
The value for `CC(=O)N[C@@H](C)CO[C@H]1C[C@H](COc2nccc(-c3csc(C)n3)c2C)C1` [Compound I-333] was 203 nM.
With `CC(=O)N[C@@H](C)CO[C@H]1C[C@H](COc2nccc3cc(F)ccc23)C1` [Compound I-334], the half-maximal inhibitory concentration (IC50) was found to be 179 nM.
For the compound `CC(=O)N[C@@H](C)CO[C@H]1C[C@H](COc2nccc(C3=CCCC3)c2Cl)C1` [Compound I-335], the IC50 was determined as 18 nM.
The value for `CC(=O)N[C@@H](C)CO[C@H]1C[C@H](COc2nccc(C3=CCCC3)c2C)C1` [Compound I-336] was 25 nM.
The value for `CC(=O)N[C@@H](C)CO[C@H]1C[C@H](COc2nccc(N3CC4(CCC4)C3)c2Cl)C1` [Compound I-337] was 7 nM.
The value for `CC(=O)N[C@@H](C)CO[C@H]1C[C@H](COc2ncnc(N3CCCC3)c2Cl)C1` [Compound I-338] was 26 nM; that for `CC(=O)N[C@@H](C)CO[C@H]1C[C@H](COc2nccc(NC(=O)c3ccccc3)c2Cl)C1` [Compound I-339] was 35 nM.
`CC(=O)N[C@@H](C)CO[C@H]1C[C@H](COc2ncnc(NCc3cccc(Cl)c3)c2Cl)C1` [Compound I-340]: the IC50 is 21 nM.
The value for `CC(=O)N[C@@H](C)CO[C@H]1C[C@H](COc2ncnc(OC(C)c3ccccc3)c2Cl)C1` (some centres unmarked) [Compound I-341] was 119 nM.
The value for `CC(=O)N[C@@H](C)CO[C@H]1C[C@H](COc2ncnc(NCc3cccc(C(F)(F)F)c3)c2Cl)C1` [Compound I-342] was 108 nM; that for `CC(=O)N[C@@H](C)CO[C@H]1C[C@H](COc2ncnc(NCc3cccc(C#N)c3)c2Cl)C1` [Compound I-343] was 118 nM; that for `CC(=O)N[C@@H](C)CO[C@H]1C[C@H](COc2ncnc(NCc3ccc(Cl)cc3)c2Cl)C1` [Compound I-344] was 13 nM.
The value for `CC(=O)N[C@@H](C)CO[C@H]1C[C@H](COc2ncnc(OCCc3ccccc3)c2Cl)C1` [Compound I-345] was 38 nM.
`CC(=O)N[C@@H](C)CO[C@H]1C[C@H](COc2ncnc(OCc3cccc(C#N)c3)c2Cl)C1` [Compound I-346]: the half-maximal inhibitory concentration (IC50) was found to be 19 nM.
Regarding `CC(=O)N[C@@H](C)CO[C@H]1C[C@H](COc2ncnc(OCc3ccc(C#N)cc3)c2Cl)C1` [Compound I-347], the half-inhibitory concentration (IC50) stood at 55 nM.
The value for `COc1ccc(COc2ncnc(OC[C@H]3C[C@H](OC[C@H](C)NC(C)=O)C3)c2Cl)cn1` [Compound I-348] was 57 nM.
The value for `CC(=O)N[C@@H](C)CO[C@H]1C[C@H](COc2ncnc(OCc3ccc(C(F)(F)F)cc3)c2Cl)C1` [Compound I-349] was 39 nM; that for `CC(=O)N[C@@H](C)CO[C@H]1C[C@H](COc2ncnc(OCc3cccc(C(F)(F)F)c3)c2Cl)C1` [Compound I-350] was 49 nM; that for `CC(=O)N[C@@H](C)CO[C@H]1C[C@H](COc2ncnc(OCc3ccc(C(F)(F)F)nc3)c2Cl)C1` [Compound I-351] was 87 nM.
The value for `CC(=O)N[C@@H](C)CO[C@H]1C[C@H](COc2nccc3c2ccn3CC2CC2)C1` [Compound I-352] was 22 nM; that for `CC(=O)N[C@@H](C)CO[C@H]1C[C@H](COc2ncnc(OCc3ncc(Cl)cn3)c2Cl)C1` [Compound I-353] was 11 nM.
Regarding `CC(=O)N[C@@H](C)CO[C@H]1C[C@H](COc2ncnc(OCc3ccc(F)cn3)c2Cl)C1` [Compound I-354], the IC50 is 11 nM.
The value for `CC(=O)N[C@@H](C)CO[C@H]1C[C@H](COc2ncnc(OCC3CC3)c2Cl)C1` [Compound I-355] was 18 nM.
The value for `CC(=O)N[C@@H](C)CO[C@H]1C[C@H](COc2ncnc(OCC3CC3(F)F)c2Cl)C1` (some centres unmarked) [Compound I-356] was 66 nM; that for `CC(=O)N[C@@H](C)CO[C@H]1C[C@H](COc2ncnc(OCC(C)(F)F)c2Cl)C1` [Compound I-357] was 103 nM.
The value for `CC(=O)N[C@@H](C)CO[C@H]1C[C@H](COc2nccc(N3CCCC3)c2F)C1` [Compound I-358] was 19 nM.
With `CC(=O)N[C@@H](C)CO[C@H]1C[C@H](COc2ncnc3c2ccn3CC2CC2)C1` [Compound I-359], the IC50 turned out to be 21 nM.
The value for `CC(=O)N[C@@H](C)CO[C@H]1C[C@H](COc2ncnc(OCc3cc(F)ccn3)c2Cl)C1` [Compound I-360] was 17 nM.
The value for `CC(=O)N[C@@H](C)CO[C@H]1C[C@H](COc2ncnc(OCc3ccc(Cl)nn3)c2Cl)C1` [Compound I-361] was 570 nM; that for `CC(=O)N[C@@H](C)CO[C@H]1C[C@H](COc2ncnc3c2ccn3C(C)C2CC2)C1` (some centres unmarked) [Compound I-362] was 130 nM.
The value for `CC(=O)N[C@@H](C)CO[C@H]1C[C@H](COc2ncnc(OCc3cc(F)ccn3)c2F)C1` [Compound I-363] was 32 nM.
Consider `CC(=O)N[C@@H](C)CO[C@H]1C[C@H](COc2nccc(N3CCC(F)(F)C3)c2Cl)C1` [Compound I-364], for which the IC50 was 44 nM.
The value for `CC(=O)N[C@@H](C)CO[C@H]1C[C@H](COc2nccc(OC3C[C@@H]4CC[C@@H]3C4)c2Cl)C1` (some centres unmarked) [Compound I-365] was 100 nM.
The value for `CC(=O)N[C@@H](C)CO[C@H]1C[C@H](COc2nccc(OC3C[C@@H]4CC[C@@H]3C4)c2Cl)C1` (some centres unmarked) [Compound I-366] was 31 nM; that for `CC(=O)N[C@@H](C)CO[C@H]1C[C@H](COc2nccc(OC3CCC3)c2Cl)C1` [Compound I-367] was 113 nM.
The value for `CC(=O)N[C@@H](C)CO[C@H]1C[C@H](COc2nccc(OC3CCCCC3)c2Cl)C1` [Compound I-368] was 48 nM.
For `CC(=O)N[C@@H](C)CO[C@H]1C[C@H](COc2nccc(OCC3CC3C)c2Cl)C1` (some centres unmarked) [Compound I-369], the IC50 is 19 nM.
The value for `CC(=O)N[C@@H](C)CO[C@H]1C[C@H](COc2nccc(OCC3(C)CC3)c2Cl)C1` [Compound I-370] was 13 nM.
For the compound `CC(=O)N[C@@H](C)CO[C@H]1C[C@H](COc2nccc(OCC3(C#N)CC3)c2Cl)C1` [Compound I-371], the IC50 stood at 198 nM.
The value for `CC(=O)N[C@@H](C)CO[C@H]1C[C@H](COc2nccc(OCC(C)(C)C)c2Cl)C1` [Compound I-372] was 13 nM; that for `COCCOc1ccnc(OC[C@H]2C[C@H](OC[C@H](C)NC(C)=O)C2)c1Cl` [Compound I-373] was 894 nM; that for `CC(=O)N[C@@H](C)CO[C@H]1C[C@H](COc2nccc(OCC3COC3)c2Cl)C1` [Compound I-374] was 637 nM.
The value for `CC(=O)N[C@@H](C)CO[C@H]1C[C@H](COc2nccc(N3CCC(F)(F)CC3)c2Cl)C1` [Compound I-375] was 102 nM; that for `CC(=O)N[C@@H](C)CO[C@H]1C[C@H](COc2ncnc(OCc3ccccc3)c2Cl)C1` [Compound I-376] was 7 nM; that for `CC(=O)N[C@@H](C)CO[C@H]1C[C@H](COc2ncnc(OCc3ccccn3)c2Cl)C1` [Compound I-377] was 39 nM.
On to `CC(=O)N[C@@H](C)CO[C@H]1C[C@H](COc2nccc(N3CCCC3)c2C)C1` [Compound I-378], for which the IC50 stood at 144 nM.
The value for `COc1c(-c2ccc(F)cc2)ccnc1OC[C@H]1C[C@H](OC[C@H](C)NC(C)=O)C1` [Compound I-379] was 258 nM.
